Legend:
[1] = target: T1, HiBit-BRM fusion protein (Homo sapiens, UniProt P51531); experiment: HiBiT-BRM cell-based degradation assay (Nano-Glo HiBiT Lytic Detection, 24 h); conditions: HeLa cell line expressing HiBiT-BRM; for DC50: read-out: BRM HiBit Degradation IC50
T1 construct: expressed in transfected cells
How it was run: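 Luminescence from reconstituted NanoBiT luciferase in lysed HeLa HiBiT-BRM cells served as the measure of remaining BRM after 24 h treatment. Compounds were tested from 30 μM final downward in 3-fold steps. DMSO and 2 μM of a standard BRM/BRG1 degrader defined the scale limits.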

[2] = target: T2, HiBit-BRG1 fusion protein (Homo sapiens, UniProt P51532); experiment: HiBiT-BRG1 cell-based degradation assay (Nano-Glo HiBiT Lytic Detection, 24 h); conditions: HeLa cell line expressing HiBit-BRG1 and LgBit; for Dmax: read-out: BRG1 HiBit Degradation Maximum (%); for DC50: read-out: BRMG1 HiBit Degradation IC50
T2 construct: expressed in transfected cells
T2 sequence (P51532 whole entry, the tested form may be a part): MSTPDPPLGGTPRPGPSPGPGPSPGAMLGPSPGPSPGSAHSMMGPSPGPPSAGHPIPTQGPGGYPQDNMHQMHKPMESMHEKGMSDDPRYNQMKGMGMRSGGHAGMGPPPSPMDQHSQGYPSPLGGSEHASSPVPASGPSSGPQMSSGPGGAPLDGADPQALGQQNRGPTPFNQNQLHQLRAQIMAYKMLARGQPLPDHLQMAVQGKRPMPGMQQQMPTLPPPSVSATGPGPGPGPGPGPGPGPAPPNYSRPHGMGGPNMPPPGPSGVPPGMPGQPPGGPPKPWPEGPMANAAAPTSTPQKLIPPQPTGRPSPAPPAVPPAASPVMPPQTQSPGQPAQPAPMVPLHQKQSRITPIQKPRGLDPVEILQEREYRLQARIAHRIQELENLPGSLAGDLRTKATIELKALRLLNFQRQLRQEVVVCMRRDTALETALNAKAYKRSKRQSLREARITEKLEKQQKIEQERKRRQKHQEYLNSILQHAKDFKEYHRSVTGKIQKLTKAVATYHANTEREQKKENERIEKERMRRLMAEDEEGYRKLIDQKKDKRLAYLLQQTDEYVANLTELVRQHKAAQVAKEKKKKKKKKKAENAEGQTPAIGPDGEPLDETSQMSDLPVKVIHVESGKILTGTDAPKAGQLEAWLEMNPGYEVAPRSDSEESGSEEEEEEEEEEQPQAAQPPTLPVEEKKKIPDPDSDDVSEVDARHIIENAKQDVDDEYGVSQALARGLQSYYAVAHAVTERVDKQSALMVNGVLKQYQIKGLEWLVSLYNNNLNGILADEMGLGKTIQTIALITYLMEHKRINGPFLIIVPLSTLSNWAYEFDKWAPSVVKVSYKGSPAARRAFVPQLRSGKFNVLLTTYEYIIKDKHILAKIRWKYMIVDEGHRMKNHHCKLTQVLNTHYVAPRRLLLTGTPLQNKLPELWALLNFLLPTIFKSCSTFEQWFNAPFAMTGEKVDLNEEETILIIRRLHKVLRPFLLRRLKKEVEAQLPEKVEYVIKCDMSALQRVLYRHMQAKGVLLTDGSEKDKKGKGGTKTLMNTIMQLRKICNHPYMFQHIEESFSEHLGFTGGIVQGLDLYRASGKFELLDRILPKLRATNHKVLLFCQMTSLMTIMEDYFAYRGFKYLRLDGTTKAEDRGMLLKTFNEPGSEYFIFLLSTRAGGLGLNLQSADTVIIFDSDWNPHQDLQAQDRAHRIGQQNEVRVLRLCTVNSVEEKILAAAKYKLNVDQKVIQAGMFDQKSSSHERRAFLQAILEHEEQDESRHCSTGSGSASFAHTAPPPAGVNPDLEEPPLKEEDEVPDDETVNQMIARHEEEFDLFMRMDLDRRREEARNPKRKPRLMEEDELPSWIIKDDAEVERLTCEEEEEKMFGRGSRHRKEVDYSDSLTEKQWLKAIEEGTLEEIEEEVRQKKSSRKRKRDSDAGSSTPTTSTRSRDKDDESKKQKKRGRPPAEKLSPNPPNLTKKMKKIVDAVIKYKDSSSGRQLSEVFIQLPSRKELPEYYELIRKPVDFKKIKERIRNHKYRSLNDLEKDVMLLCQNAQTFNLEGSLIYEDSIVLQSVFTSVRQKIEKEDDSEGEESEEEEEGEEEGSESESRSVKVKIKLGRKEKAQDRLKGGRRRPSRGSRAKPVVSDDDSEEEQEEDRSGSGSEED
How it was run: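 Luminescence from reconstituted NanoBiT luciferase after lytic detection served as read-out of remaining HiBit-BRG1 in stable HeLa cells, which also express LgBit. Cells were seeded at 5000 per well and incubated with compound for 24 h. DMSO and a 2 μM known degrader defined the control range.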

T1 sequence (P51531 whole entry, the tested form may be a part): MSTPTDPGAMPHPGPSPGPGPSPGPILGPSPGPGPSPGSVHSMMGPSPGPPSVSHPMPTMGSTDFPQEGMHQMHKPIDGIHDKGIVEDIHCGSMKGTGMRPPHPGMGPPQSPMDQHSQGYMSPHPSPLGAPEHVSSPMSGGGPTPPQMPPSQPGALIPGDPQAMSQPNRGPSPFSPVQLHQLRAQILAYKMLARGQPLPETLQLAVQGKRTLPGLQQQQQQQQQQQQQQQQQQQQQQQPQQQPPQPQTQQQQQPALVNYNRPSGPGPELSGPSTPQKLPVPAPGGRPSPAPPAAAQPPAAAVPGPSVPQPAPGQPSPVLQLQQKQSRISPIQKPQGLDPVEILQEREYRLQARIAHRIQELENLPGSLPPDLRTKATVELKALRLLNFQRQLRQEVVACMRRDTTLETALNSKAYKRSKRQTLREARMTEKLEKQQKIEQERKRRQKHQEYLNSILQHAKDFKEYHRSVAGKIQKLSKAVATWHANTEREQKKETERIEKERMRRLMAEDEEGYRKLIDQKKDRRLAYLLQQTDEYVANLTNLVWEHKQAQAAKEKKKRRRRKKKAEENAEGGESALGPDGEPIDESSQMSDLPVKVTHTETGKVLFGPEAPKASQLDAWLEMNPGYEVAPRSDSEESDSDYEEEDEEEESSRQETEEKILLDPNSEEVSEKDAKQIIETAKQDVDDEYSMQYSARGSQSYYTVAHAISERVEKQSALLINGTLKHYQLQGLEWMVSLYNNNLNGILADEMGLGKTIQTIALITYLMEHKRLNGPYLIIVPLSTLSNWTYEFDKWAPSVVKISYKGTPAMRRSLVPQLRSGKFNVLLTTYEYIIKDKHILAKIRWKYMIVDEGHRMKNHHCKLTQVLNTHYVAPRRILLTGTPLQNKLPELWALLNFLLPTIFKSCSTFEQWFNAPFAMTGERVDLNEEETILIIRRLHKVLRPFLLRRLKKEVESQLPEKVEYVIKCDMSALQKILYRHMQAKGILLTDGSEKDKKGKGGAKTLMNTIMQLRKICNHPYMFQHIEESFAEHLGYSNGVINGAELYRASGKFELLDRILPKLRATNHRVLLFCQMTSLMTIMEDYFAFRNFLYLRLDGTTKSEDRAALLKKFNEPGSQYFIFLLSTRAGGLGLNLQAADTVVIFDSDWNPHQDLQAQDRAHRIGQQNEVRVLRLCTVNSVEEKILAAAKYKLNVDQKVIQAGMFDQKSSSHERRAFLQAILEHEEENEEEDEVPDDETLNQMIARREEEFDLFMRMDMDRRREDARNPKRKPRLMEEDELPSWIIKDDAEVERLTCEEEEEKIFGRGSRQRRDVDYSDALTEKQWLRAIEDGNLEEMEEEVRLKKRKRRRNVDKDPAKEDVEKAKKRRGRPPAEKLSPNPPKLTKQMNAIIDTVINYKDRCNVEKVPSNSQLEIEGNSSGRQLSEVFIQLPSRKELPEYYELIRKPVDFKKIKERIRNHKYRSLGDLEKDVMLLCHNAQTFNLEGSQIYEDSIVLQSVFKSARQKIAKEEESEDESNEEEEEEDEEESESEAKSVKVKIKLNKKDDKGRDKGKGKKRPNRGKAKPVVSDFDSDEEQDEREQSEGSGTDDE

SMILES	BRM HiBit Degradation Maximum (%) [1]	DC50 [1] [nM]	Dmax [2] [%]	DC50 [2] [nM]
Cc1ncsc1-c1ccc([C@H](C)NC(=O)[C@@H]2C[C@@H](O)CN2C(=O)[C@@H](c2cc(OCCN3CC[C@H](c4c[nH]c5nnc(-c6ccccc6O)cc45)C3)no2)C(C)C)cc1 (racemic) [Compound 292, (2S,4R)-4-hydroxy-1-((R)-2-(3-(2-((R)-3-(3-(2-hydroxyphenyl)-7H-pyrrolo[2,3-c]pyridazin-5-yl)pyrrolidin-1-yl)ethoxy)isoxazol-5-yl)-3-methylbutanoyl)-N-((S)-1-(4-(4-methylthiazol-5-yl)phenyl)ethyl)pyrrolidine-2-carboxamide]	B (“B” indicates maximum degradation ≥ 50%)	> 100	< 50	
Cc1ncsc1-c1ccc(CNC(=O)[C@@H]2C[C@@H](O)CN2C(=O)[C@@H](NC(=O)CCN(C)C23CC(c4cc5cc(-c6ccccc6O)nnc5[nH]4)(C2)C3)C(C)(C)C)cc1 (racemic) [Compound 293, (2S,4R)-4-hydroxy-1-[(2S)-2-[3-([3-[3-(2-hydroxyphenyl)-7H-pyrrolo[2,3-c]pyridazin-6-yl]bicyclo[1.1.1]pentan-1-yl](methyl)amino)propanamido]-3,3-dimethylbutanoyl]-N-[[4-(4-methyl-1,3-thiazol-5-yl)phenyl]methyl]pyrrolidine-2-carboxamide]	A (“A” indicates maximum degradation ≥ 75%)	> 100	> 50	> 1000
Cc1ncsc1-c1ccc([C@H](C)NC(=O)[C@@H]2C[C@@H](O)CN2C(=O)[C@@H](c2cc(OCCN3CC(Cc4cc5cc(-c6ccccc6O)nnc5[nH]4)C3)no2)C(C)C)cc1 (racemic) [Compound 294, (2S,4R)-4-hydroxy-1-((R)-2-(3-(2-(3-((3-(2-hydroxyphenyl)-7H-pyrrolo[2,3-c]pyridazin-6-yl)methyl)azetidin-1-yl)ethoxy)isoxazol-5-yl)-3-methylbutanoyl)-N-((S)-1-(4-(4-methylthiazol-5-yl)phenyl)ethyl)pyrrolidine-2-carboxamide]	A (“A” indicates maximum degradation ≥ 75%)	> 100	< 50	
Cc1ncsc1-c1ccc([C@H](C)NC(=O)[C@@H]2C[C@@H](O)CN2C(=O)[C@@H](c2cc(OCCNCc3ccc(Cc4cc5cc(-c6ccccc6O)nnc5[nH]4)cc3)no2)C(C)C)cc1 (racemic) [Compound 295]	A (“A” indicates maximum degradation ≥ 75%)	> 10	> 75	> 100
Cc1ncsc1-c1ccc(CNC(=O)[C@@H]2C[C@@H](O)CN2C(=O)[C@@H](NC(=O)CCNC23CC(c4cc5cc(-c6ccccc6O)nnc5[nH]4)(C2)C3)C(C)(C)C)cc1 (racemic) [Compound 296]	A (“A” indicates maximum degradation ≥ 75%)	> 1000	> 50	> 1000
Cc1ncsc1-c1ccc(CNC(=O)[C@@H]2C[C@@H](O)CN2C(=O)[C@@H](NC(=O)CCCCN2CC(c3cc4cc(-c5ccccc5O)nnc4[nH]3)C2)C(C)(C)C)cc1 (racemic) [Compound 297, (2S,4R)-4-hydroxy-1-((S)-2-(5-(3-(3-(2-hydroxyphenyl)-7H-pyrrolo[2,3-c]pyridazin-6-yl)azetidin-1-yl)pentanamido)-3,3-dimethylbutanoyl)-N-(4-(4-methylthiazol-5-yl)benzyl)pyrrolidine-2-carboxamide]	C (“C” indicates maximum degradation < 50%)		< 50	
Cc1ncsc1-c1ccc(CNC(=O)[C@@H]2C[C@@H](O)CN2C(=O)[C@@H](NC(=O)CCC(=O)NC23CC(c4cc5cc(-c6ccccc6O)nnc5[nH]4)(C2)C3)C(C)(C)C)cc1 (racemic) [Compound 298, N1-((S)-1-((2S,4R)-4-hydroxy-2-((4-(4-methylthiazol-5-yl)benzyl)carbamoyl)pyrrolidin-1-yl)-3,3-dimethyl-1-oxobutan-2-yl)-N4-(3-(3-(2-hydroxyphenyl)-7H-pyrrolo[2,3-c]pyridazin-6-yl)bicyclo[1.1.1]pentan-1-yl)succinamide]	C (“C” indicates maximum degradation < 50%)		< 50	
Cc1ncsc1-c1ccc(CNC(=O)[C@@H]2C[C@@H](O)CN2C(=O)[C@@H](NC(=O)CCCCC(=O)NC23CC(c4cc5cc(-c6ccccc6O)nnc5[nH]4)(C2)C3)C(C)(C)C)cc1 (racemic) [Compound 299, N1-((S)-1-((2S,4R)-4-hydroxy-2-((4-(4-methylthiazol-5-yl)benzyl)carbamoyl)pyrrolidin-1-yl)-3,3-dimethyl-1-oxobutan-2-yl)-N6-(3-(3-(2-hydroxyphenyl)-7H-pyrrolo[2,3-c]pyridazin-6-yl)bicyclo[1.1.1]pentan-1-yl)adipamide]	B (“B” indicates maximum degradation ≥ 50%)	> 1000	< 50	
Cc1ncsc1-c1ccc([C@H](C)NC(=O)[C@@H]2C[C@@H](O)CN2C(=O)[C@@H](c2cc(OCCNCCN3CC(c4cc5cc(-c6ccccc6O)nnc5[nH]4)C3)no2)C(C)C)cc1 (racemic) [Compound 300]	A (“A” indicates maximum degradation ≥ 75%)	> 100	> 50	
Cc1ncsc1-c1ccc(CNC(=O)[C@@H]2C[C@@H](O)CN2C(=O)[C@@H](NC(=O)CCCC(=O)NC23CC(c4cc5cc(-c6ccccc6O)nnc5[nH]4)(C2)C3)C(C)(C)C)cc1 (racemic) [Compound 301, N1-((S)-1-((2S,4R)-4-hydroxy-2-((4-(4-methylthiazol-5-yl)benzyl)carbamoyl)pyrrolidin-1-yl)-3,3-dimethyl-1-oxobutan-2-yl)-N5-(3-(3-(2-hydroxyphenyl)-7H-pyrrolo[2,3-c]pyridazin-6-yl)bicyclo[1.1.1]pentan-1-yl)glutaramide]	B (“B” indicates maximum degradation ≥ 50%)	> 1000	< 50	
Cc1ncsc1-c1ccc([C@H](C)NC(=O)[C@@H]2C[C@@H](O)CN2C(=O)[C@@H](c2cc(OCCN(C)C34CC(c5cc6cc(-c7ccccc7O)nnc6[nH]5)(C3)C4)no2)C(C)C)cc1 (racemic) [Compound 302, (2S,4R)-4-hydroxy-1-((R)-2-(3-(2-((3-(3-(2-hydroxyphenyl)-7H-pyrrolo[2,3-c]pyridazin-6-yl)bicyclo[1.1.1]pentan-1-yl)(methyl)amino)ethoxy)isoxazol-5-yl)-3-methylbutanoyl)-N-((S)-1-(4-(4-methylthiazol-5-yl)phenyl)ethyl)pyrrolidine-2-carboxamide]	A (“A” indicates maximum degradation ≥ 75%)	> 10	> 75	> 10
Cc1ncsc1-c1ccc([C@H](C)NC(=O)[C@@H]2C[C@@H](O)CN2C(=O)[C@@H](c2cc(OCCN3CCc4[nH]c5nnc(-c6ccccc6O)cc5c4C3)no2)C(C)C)cc1 (racemic) [Compound 303, (2S,4R)-4-hydroxy-1-((R)-2-(3-(2-(3-(2-hydroxyphenyl)-5,7,8,9-tetrahydro-6H-pyrido[3′,4′:4,5]pyrrolo[2,3-c]pyridazin-6-yl)ethoxy)isoxazol-5-yl)-3-methylbutanoyl)-N-((S)-1-(4-(4-methylthiazol-5-yl)phenyl)ethyl)pyrrolidine-2-carboxamide]	C (“C” indicates maximum degradation < 50%)		< 50	
Cc1ncsc1-c1ccc([C@H](C)NC(=O)[C@@H]2C[C@@H](O)CN2C(=O)[C@@H](c2cc(OCCN3CC4(CC(c5c[nH]c6nnc(-c7ccccc7O)cc56)C4)C3)no2)C(C)C)cc1 (racemic) [Compound 304, (2S,4R)-4-hydroxy-1-((R)-2-(3-(2-(6-(3-(2-hydroxyphenyl)-7H-pyrrolo[2,3-c]pyridazin-5-yl)-2-azaspiro[3.3]heptan-2-yl)ethoxy)isoxazol-5-yl)-3-methylbutanoyl)-N-((S)-1-(4-(4-methylthiazol-5-yl)phenyl)ethyl)pyrrolidine-2-carboxamide]	A (“A” indicates maximum degradation ≥ 75%)	> 10	> 75	> 100
Cc1ncsc1-c1ccc([C@H](C)NC(=O)[C@@H]2C[C@@H](O)CN2C(=O)[C@@H](c2cc(OCC(=O)N3CC(c4cc5cc(-c6ccccc6O)nnc5[nH]4)C3)no2)C(C)C)cc1 (racemic) [Compound 305, (2S,4R)-4-hydroxy-1-((R)-2-(3-(2-(3-(3-(2-hydroxyphenyl)-7H-pyrrolo[2,3-c]pyridazin-6-yl)azetidin-1-yl)-2-oxoethoxy)isoxazol-5-yl)-3-methylbutanoyl)-N-((S)-1-(4-(4-methylthiazol-5-yl)phenyl)ethyl)pyrrolidine-2-carboxamide]	A (“A” indicates maximum degradation ≥ 75%)	> 1000	< 50	
Cc1ncsc1-c1ccc(CNC(=O)[C@@H]2C[C@@H](O)CN2C(=O)[C@@H](NC(=O)C(=O)N2CC(c3cc4cc(-c5ccccc5O)nnc4[nH]3)C2)C(C)(C)C)cc1 (racemic) [Compound 306, (2S,4R)-4-hydroxy-1-((S)-2-(2-(3-(3-(2-hydroxyphenyl)-7H-pyrrolo[2,3-c]pyridazin-6-yl)azetidin-1-yl)-2-oxoacetamido)-3,3-dimethylbutanoyl)-N-(4-(4-methylthiazol-5-yl)benzyl)pyrrolidine-2-carboxamide]	C (“C” indicates maximum degradation < 50%)		< 50	
